# Experimental data: patent publication US20250313563A1, “GLYCOGEN SYNTHASE KINASE 3 INHIBITORS AND USES THEREOF” (The Broad Institute, Inc., priority 2022, published 2025)
# Like-named read-outs stand apart in the source and are kept apart here.
# Columns and labels:
# [1] = biological target: GSK3α (GST-full length GSK3α) (Homo sapiens (Human), UniProt P49840); test: GSK3α TR-FRET kinase assay; type: biochemical
# Summary of the method: (§1)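 In this time-resolved FRET format, kinase reactions contained 200 nM biotinylated, S645-phosphorylated glycogen synthase 631-650 peptide and either isoform-specific ATP (2 μM GSK3b, 4 μM GSK3α) or 1 mM ATP. They were quenched with EDTA after 100 min at ambient temperature. Inhibition curves gave IC50 values.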
# [2] = biological target: GSK3b (GST-full length GSK3b) (Homo sapiens (Human), UniProt P49841); test: GSK3b TR-FRET kinase assay; type: biochemical
# Summary of the method: as §1
# [3] = 1 nM GSK3α, 4 μM ATP, 30 minute preincubation, Table 16, read-out: GSK3-A TR-FRET BIOCHEMICAL (TR-FRET)
# [4] = 1 nM GSK3b, 2 μM ATP, 30 minute preincubation, Table 16, read-out: GSK3-B TR-FRET BIOCHEMICAL (TR-FRET)
# [5] = 1 nM GSK3α, 4 μM ATP, 30 minute preincubation, read-out: GSK3-A TR-FRET BIOCHEMICAL (TR-FRET), IC50
# [6] = 1 nM GSK3b, 2 μM ATP, 30 minute preincubation, read-out: GSK3-B TR-FRET BIOCHEMICAL (TR-FRET), IC50
# [7] = read-out: GSK3-A (TR-FRET 1 mM ATP), GMean, IC50, 1 mM ATP, geometric mean
# [8] = read-out: GSK3-B (TR-FRET 1 mM ATP), GMean, IC50, 1 mM ATP, geometric mean
# [9] = GSK3-A (TR-FRET 1 mM ATP), GMean, IC50, 1 mM ATP, geometric mean
# [10] = GSK3-B (TR-FRET 1 mM ATP), GMean, IC50, 1 mM ATP, geometric mean
# GSK3α (GST-full length GSK3α), sequence (P49840 whole entry, canonical isoform): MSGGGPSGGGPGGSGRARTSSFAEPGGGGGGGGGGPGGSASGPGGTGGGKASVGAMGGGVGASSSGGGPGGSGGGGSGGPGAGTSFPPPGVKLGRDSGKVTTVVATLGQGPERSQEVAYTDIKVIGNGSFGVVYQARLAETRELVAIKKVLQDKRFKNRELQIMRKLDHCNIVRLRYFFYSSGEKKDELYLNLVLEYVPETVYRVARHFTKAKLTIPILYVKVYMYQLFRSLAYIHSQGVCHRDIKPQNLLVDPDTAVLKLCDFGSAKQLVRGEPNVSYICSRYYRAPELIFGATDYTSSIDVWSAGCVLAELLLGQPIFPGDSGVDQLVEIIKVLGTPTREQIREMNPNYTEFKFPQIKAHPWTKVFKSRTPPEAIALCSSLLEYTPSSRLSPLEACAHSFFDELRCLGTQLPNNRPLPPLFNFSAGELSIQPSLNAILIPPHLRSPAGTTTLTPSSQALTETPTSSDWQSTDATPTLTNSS
# GSK3b (GST-full length GSK3b), sequence (P49841 whole entry): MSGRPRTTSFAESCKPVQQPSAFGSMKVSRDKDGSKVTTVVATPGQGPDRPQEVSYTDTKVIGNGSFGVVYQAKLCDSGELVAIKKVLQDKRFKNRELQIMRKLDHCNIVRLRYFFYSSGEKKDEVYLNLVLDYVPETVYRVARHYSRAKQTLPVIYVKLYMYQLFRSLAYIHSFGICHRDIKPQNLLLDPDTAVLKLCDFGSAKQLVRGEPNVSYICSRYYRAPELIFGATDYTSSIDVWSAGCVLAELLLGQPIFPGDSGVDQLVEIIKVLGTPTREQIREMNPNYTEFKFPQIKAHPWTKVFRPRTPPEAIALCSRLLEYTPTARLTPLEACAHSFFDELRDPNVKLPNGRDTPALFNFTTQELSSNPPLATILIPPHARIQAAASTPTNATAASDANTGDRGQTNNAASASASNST
SMILES,"IC50 [1, 3]","IC50 [2, 4]","IC50 [1, 5]","IC50 [2, 6]",also measured
CCC1(c2cccc(CS(C)(=O)=O)c2)C2=C(CC(C)(C)CC2=O)Nc2n[nH]cc21 (stereo not drawn) [Compound 945601],100 to 1000 nM,100 to 1000 nM,,,
CCC1(c2cccc(N3CCOCC3)c2)C2=C(CC(C)(C)NC2=O)Nc2n[nH]cc21 (stereo not drawn) [Compound 945602],,,1000 to 5000 nM,> 5000 nM,
CCC1(c2cccc(-c3cnn4c3CCCC4)c2)C2=C(CC(C)(C)NC2=O)Nc2n[nH]cc21 (stereo not drawn) [Compound 945603],,,≤ 100 nM,100 to 1000 nM,
CC[C@]1(c2cccc(S(C)(=O)=O)c2)C2=C(CC(C)(C)NC2=O)Nc2n[nH]cc21 [Compound 945604],,,≤ 100 nM,≤ 100 nM,
CC[C@]1(c2cccc(-c3cncn3C)c2)C2=C(CC(C)(C)CC2=O)Nc2n[nH]cc21 [Compound 945605],≤ 100 nM,≤ 100 nM,,,
CCC1(c2cccc(-c3ccnc4c3CCC4)c2)C2=C(CC(C)(C)CC2=O)Nc2n[nH]cc21 (stereo not drawn) [Compound 945606],≤ 100 nM,100 to 1000 nM,,,"IC50 [1, 7]: 100 to 1000 nM; IC50 [2, 8]: 1000 to 5000 nM"
CC[C@]1(c2cccc(-c3cnc4n3CCCC4)c2)C2=C(CC(C)(C)CC2=O)Nc2n[nH]cc21 [Compound 945607],≤ 100 nM,100 to 1000 nM,,,"IC50 [1, 7]: 1000 to 5000 nM; IC50 [2, 8]: > 5000 nM"
CC[C@]1(c2cccc(-c3cnn(C)c3C)c2)C2=C(CC(C)(C)NC2=O)Nc2n[nH]cc21 [Compound 945608],,,≤ 100 nM,100 to 1000 nM,
CC[C@]1(c2cccc(N(C)c3cc(C)cc(C)n3)c2)C2=C(CC(C)(C)CC2=O)Nc2n[nH]cc21 [Compound 945610],≤ 100 nM,100 to 1000 nM,,,
CC[C@]1(c2cccc(-c3cnn(C)c3)c2)C2=C(CC(C)(C)NC2=O)Nc2n[nH]c(C)c21 [Compound 945611],,,> 5000 nM,> 5000 nM,
CC[C@]1(c2cccc(-c3cnc(C)n3C)c2)C2=C(CC(C)(C)CC2=O)Nc2n[nH]cc21 [Compound 945612],1000 to 5000 nM,> 5000 nM,,,
CC[C@@]1(c2cccc(-c3cnc(C)n3C)c2)C2=C(CC(C)(C)CC2=O)Nc2n[nH]cc21 [Compound 945613],≤ 100 nM,≤ 100 nM,,,"IC50 [1, 7]: 100 to 1000 nM; IC50 [2, 8]: 1000 to 5000 nM"
CCC1(c2cccc(-c3cnn(C)c3)c2)C2=C(CC(C)(C)NC2=O)Nc2n[nH]c(C)c21 (stereo not drawn) [Compound 945614],,,≤ 100 nM,100 to 1000 nM,"IC50 [1, 7]: 100 to 1000 nM; IC50 [2, 8]: 1000 to 5000 nM"
CC[C@@]1(c2cccc(-c3cnn(C)c3C)c2)C2=C(CC(C)(C)NC2=O)Nc2n[nH]cc21 [Compound 945617],,,1000 to 5000 nM,> 5000 nM,
CC[C@@]1(c2cccc(-c3ccnc4c3CCC4)c2)C2=C(CC(C)(C)CC2=O)Nc2n[nH]cc21 [Compound 945619],1000 to 5000 nM,> 5000 nM,,,
CCC1(c2cccc(-c3cncn3C)c2)C2=C(CC(C)(C)CC2=O)Nc2n[nH]cc21 (stereo not drawn) [Compound 945620],100 to 1000 nM,1000 to 5000 nM,,,
CC[C@@]1(c2cccc(C(F)(F)F)c2)C2=C(CCN(C(C)(C)C)C2=O)Nc2n[nH]cc21 [Compound 945633],,,> 5000 nM,> 5000 nM,
CC[C@]1(c2cccc(C(F)(F)F)c2)C2=C(CCN(C(C)(C)C)C2=O)Nc2n[nH]cc21 [Compound 945634],,,1000 to 5000 nM,> 5000 nM,
CCC1(c2cccc(C(F)(F)F)c2)C2=C(CCN(c3cccnc3)C2=O)Nc2n[nH]cc21 (stereo not drawn) [Compound 945637],,,≤ 100 nM,100 to 1000 nM,
CC1(C)CC(=O)C2=C(C1)Nc1n[nH]cc1C21CCN(S(=O)(=O)c2ccccc2Cl)CC1 [Compound 945655],≤ 100 nM,≤ 100 nM,,,
COc1cccc(S(=O)(=O)N2CCC3(CC2)C2=C(CC(C)(C)CC2=O)Nc2n[nH]cc23)c1F [Compound 945656],≤ 100 nM,≤ 100 nM,,,"IC50 [1, 9]: ≤ 100 nM; IC50 [2, 10]: 100 to 1000 nM"
CC1(C)CC(=O)C2=C(C1)Nc1n[nH]cc1C21CCN(S(=O)(=O)c2ccccc2C(F)F)CC1 [Compound 945657],≤ 100 nM,100 to 1000 nM,,,"IC50 [1, 9]: 100 to 1000 nM; IC50 [2, 10]: 1000 to 5000 nM"
Cc1cnn(C)c1S(=O)(=O)N1CCC2(CC1)C1=C(CC(C)(C)CC1=O)Nc1n[nH]cc12 [Compound 945658],100 to 1000 nM,1000 to 5000 nM,,,
CN(C)C(=O)c1ccc(S(=O)(=O)N2CCC3(CC2)C2=C(CC(C)(C)CC2=O)Nc2n[nH]cc23)cc1 [Compound 945659],≤ 100 nM,≤ 100 nM,,,
